Experimental data as given in patent US4845292A, “Hydroxy containing amines as phospholipase A2 inhibitors” (American Home Products Corporation, priority 1988, dated 1989).
Where a name gives a salt, the structure may show the parent alone.

Legend:
human platelet PLA2 = target: T1, human platelet PLA2 (Homo sapiens, UniProt P14555); assay: Inhibition of cell free human platelet PLA2 (hydrolysis of [3H]-AA labelled E. coli phospholipids); type: biochemical; details: Table 1; compounds of the invention; human platelet PLA2, pH 7.4, 37° C., 30 minutes
T1 sequence (P14555 21-144): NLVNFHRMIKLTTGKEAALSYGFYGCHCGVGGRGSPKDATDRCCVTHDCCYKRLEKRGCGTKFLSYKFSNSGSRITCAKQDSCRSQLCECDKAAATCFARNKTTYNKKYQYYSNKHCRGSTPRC
Experimental: The ability of the compounds of the invention to inhibit the activity of cell free human platelet PLA2 enzyme is measured in the following in vitro assay.
(§1) The assay is carried out as follows:
E. coli, cultured to exponential growth, are sedimented for 15 minutes at 10,000 g and resuspended in sterile isotonic saline (1-3 ml). 10-25 μCi uniformly labeled [^3 H]-arachidonic acid (AA) is added to a sterile flask, evaporated by N2 and resolubilized with 0.3 ml 20% fatty acid-free bovine serum albumen (BSA). 75-100 ml of nutrient broth and 1 ml E. coli are then added to each flask and incubated for 2-3 hours at 37° C. [^3 H]-AA labelled E. coli are then sedimented, suspended in saline and added to fresh nutrient broth and incubated for 1.5 hours at 37° C. to complete [^3 H]-AA incorporation into the phospholipids. After overnight refrigeration of cultures, E. coli are again sedimented, suspended in saline and autoclaved for 15 minutes at 120° C. E. coli cultures are washed twice with saline (first wash contains 1% BSA) and resuspended in saline. Non-labelled E. coli cultures are also prepared in the same manner. Cell number is determined by measuring the optical density at 550 nm ([…]=1 O.D.). The amount of radioactivity associated with cells is determined by counting a defined volume of cell suspension. The specific activity is subsequently adjusted by adding non-labelled E. coli to yield 10,000 cpm/10 […] of E. coli/25 ml.
Platelet PLA2 Preparation
Expired human platelets from the blood bank are centrifuged for 15 minutes at 200 g to obtain a platelet rich fraction and to remove the red blood cells. Platelets are sedimented for 15 minutes at 2500 g and the plasma is removed before adding cold 0.18N H2 SO4 (4ml/unit). Platelets are homogenized, incubated for 1 hour at 4° C., homogenized again and centrifuged for 15 minutes at 10,000 g. The PLA2 enriched supernatant fluid is removed and the amount of protein is determined by the Lowry method. The preparation is divided into various portions and stored at -20° C.
The assay measures the hydrolysis of E. coli membrane phospholipids via the release of free [^3 H]-AA from the C-2 position of phospholipids by human platelet PLA2. To ice cold 15×100 mm test tubes, the following additions are made; 2.5×10^8 E. coli (equivalent to 5 nmol phospholipid), 5 mM Ca^++, 100 mM Tris buffer (pH=7.4), 100 μg platelet extract (or an amount to produce 20-30% hydrolysis), drug or vehicle. Incubations are carried out at 37° C. in a shaking water bath for 30 minutes. The reaction is terminated by the addition of 2 volumes of tetrahydrofuran (THF) and the mixture is vortexed. Hydrolyzed [^3 H]-AA is separated from unhydrolyzed phospholipid by solid phase extraction using Bond elute NH2 columns (Analytichem Internat.). Columns are conditioned with 0.5 ml THF followed by 0.5 ml THF:H2 O (2.0:0.1 ml/v/v). Samples are loaded onto columns and hydrolyzed [^ 3 H]-AA is eluted with 1 ml THF:glacial acetic acid (98.0:2.0 ml v/v). The eluant is transferred to vials, 10 ml Optifluor is added and the radioactivity is determined by liquid scintillation counting.
Treatments are corrected for non-enzymatic hydrolysis by subtracting the dpms in treatments containing no enzyme Mean [^3 H]-AA dpm is determined and a percent inhibition relative to vehicle treated samples is calculated.
The percent hydrolysis is calculated by the following equation: [formula]

[1] = test system: rat carrageenan paw edema; assay: Rat carrageenan paw edema; type: in vivo, rat (Sprague-Dawley); details: for ED50: Rattus norvegicus, po, 3 h, read-out: Oral ED50 (95% C.L.); for % Inhibition at 50 mg/kg (peroral): Table 5, 1 hour prior to carrageenan, edema at 3 hours
Experimental: The compounds in the scope of the invention are further tested in the rat carrageenan paw edema to determine their ability to inhibit the acute inflammatory response. This assay is carried out as follows: […] male Sprague-Dawley rats, in groups of 6 animals are injected subcutaneously in the right paw with 0.1 ml of 1% carrageenan at zero time. Mercury plethysmographic readings (ml) of the paw are made at zero times and 3 hours later. Test compounds are suspended or dissolved in 0.5% methylcellulose and given perorally 1 hour prior to carrageenan administration. The increase in paw volume (edema in ml.) produced by the carrageenan is measured. […] Unpaired Student's t-test is used to determine statistical significance.

[2] = test system: synthesis of TxB2 by rat glycogen-elicited polymorphonuclear leukocytes; assay: Inhibition of synthesis of the cyclooxygenase product TxB2 (procedure of Example 7); type: cell-based; details: Leukocyte, rat PMN, A23187 stimulated; for inhibition at 10 µM: Table 3, at 10 μM
Experimental: (§2) Rat polymorphonuclear leukocytes (PMNs) are obtained from female Wistar rats (150.200 g) which receive an injection of 6% glycogen (10 ml i.p.). Rats are sacrificed 18-24 hours post injection by CO2 asphyxiation and the elicited cells are harvested by peritoneal lavage using physiological saline (0.9% NaCl). The exudate is centrifuged at 400×g for 10 minutes. The supernatant fluid is discarded and the cell pellet is resuspended to a concentration of 2.0×10^7 cells/ml in HBSS containing Ca^++ and Mg^++ and 10 μM L-cysteine.
(§3) To 1 ml aliquots of cell suspension, test drugs or vehicle are added, then preincubated at 37° C. for 10 minutes. A23187 (1 μM), [^3 H]-AA (3.0 μCi/ml) and unlabeled AA (1 μM) are then added and the samples are further incubated for 10 minutes. The reaction is terminated by centrifugation and pelleting cells. Supernatants are then analyzed by HPLC analysis on a 15 cm×4.6 mm ID Supelcosil LC-18 (Supelco)(3M) column, using a two solvent system at a flow rate of 1.4 ml total flow as follows:
(§4) Injections: 150 μl of each supernatant is injected directly onto column and ^3 H arachidonic acid metabolites are monitored using an on-line radioactivity detector (Ramona, IN/US, Fairfield, NJ).
(§5) Results are expressed as percent inhibition at a given compound dose.
In this assay, the procedure of Example 7 is carried out as described. However, in order to determine cyclooxygenase activity, the samples are co-chromatographed with authentic reference [^3 H]-TxB2.
The results are calculated as in Example 7 and presented below: […]

[3] = test system: synthesis of LTB4 by rat glycogen-elicited polymorphonuclear leukocytes (PMN); assay: Inhibition of LTB4 synthesis by rat glycogen-elicited polymorphonuclear leukocytes in the presence of exogenous substrate; type: cell-based; details: Leukocyte, A23187 stimulated; for inhibition at 10 µM: Table 2, at 10 μM
Source text: This is especially true with respect to 5,12-diHETE, which is also denoted as LTB4 [see Ford-Hitchinson, J. Roy. Soc. Med., 74, 831 (1981)]. Compounds which inhibit the PLA2 -mediated release of arachidonic acid thereby effectively prevent the oxidation of arachidonic acid to the various leukotriene products via the lipoxygenase cascade. Accordingly, the specificity of action of PLA2 inhibitors can be determined by the activity of test compounds in this assay, which measures the ability of compounds to inhibit the synthesis of LTB4 by rat glycogen-elicited polymorphonuclear leukocytes (PMN) in the presence of exogenous substrate.
as §1, §2, §3
Gradient: (system is equillibrated with Solvent A)
Percent solvent changes are accomplished in a linear fashion.
as §4
Standards: 10^4 -2.0×10^4 dpm of eicosanoids of interest are injected in 90 μl EtOH cocktail.
Co-chromatography with standard [^3 H] leukotriene B4 (LTB4) in medium of stimulated PMN exposed to drug is compared to that found in medium of stimulated cells exposed to no drug, generating percent inhibition.
as §5

| Structure (SMILES) | IC50 (human platelet PLA2) | ED50 [1] | % Inhibition at 50 mg/kg (peroral) [1] | inhibition at 10 µM [2] | inhibition at 10 µM [3] | inhibition at 5 µM ([2]; Table 3, at 5 μM) | inhibition at 5 µM ([3]; Table 2, at 5 μM) |
| --- | --- | --- | --- | --- | --- | --- | --- |
| COC(=O)C1CCCN1CCCCCCCCCCCOc1ccccc1 (racemic) [Example 3b, 1-(11-Phenoxyundecyl)-DL-proline methyl ester, hydrochloride] | 63 µM | – | – | – | – | – | – |
| CC(=O)Oc1ccccc1C(=O)O [Aspirin, reference compound] | – | 145 mg/kg | – | – | – | – | – |
| CCCCCCCCCCCCCCCCCCNC(CO)CCCC.Cl (centres unmarked) [Example 1, 2-(Octadecylamino)-1-hexanol, hydrochloride] | 12 µM | – | 26% | 26% | 24% | – | – |
| Cl.OC[C@@H]1CCCN1CCCCCCCCCCCOc1ccccc1 [Example 3a, (S)-1-(11-phenoxyundecyl)-2-pyrrolidinemethanol, hydrochloride] | 17 µM | – | 26% | 37% | 0% | – | – |
| CCOC(CNCCCCCCCCCCCOc1ccccc1)OCC.Cl [Example 4, N-(2,2-diethoxyethyl)-11-phenoxyundecanamine, hydrochloride] | 33 µM | – | 34% | – | – | – | – |
| OC[C@H](Cc1ccc(O)cc1)NCCCCCCCCCCc1ccccc1 [Example 5, (S)-4-hydroxy-α-[(10-phenyldecyl)amino]benzenepropanol, hydrochloride] | 48 µM | – | – | – | – | – | – |
| COc1ccc2c(c1)c(CC(=O)O)c(C)n2C(=O)c1ccc(Cl)cc1 [Indomethacin, reference compound] | – | 3.7 mg/kg | – | – | – | – | – |

Now from value to molecule, other results behind:

| IC50 (human platelet PLA2) | Structure (SMILES) | ED50 [1] | % Inhibition at 50 mg/kg (peroral) [1] | inhibition at 10 µM [2] | inhibition at 10 µM [3] | inhibition at 5 µM ([2]; Table 3, at 5 μM) | inhibition at 5 µM ([3]; Table 2, at 5 μM) |
| --- | --- | --- | --- | --- | --- | --- | --- |
| 19 µM | CCCCC(CO)NCCCCCCCCCCc1ccccc1.Cl (centres unmarked) [Example 2a, 2-[(10-Phenyldecyl)amino]-1-hexanol, hydrochloride] | – | 39% | 73% | 89% | – | – |
| 45 µM | CCCC[C@@H](CO)NCCCCCCCCc1ccccc1.Cl [Example 2b, (S)-2[(8-Phenyloctyl)amino]-1-hexanol, hydrochloride] | – | 25% | – | – | 0% | 52% |
| > 100 µM | CCCCC(CO)NCCCCCCc1ccccc1.Cl (centres unmarked) [Example 2c, 2-[(6-Phenylhexyl)amino]-1-hexanol, hydrochloride] | – | 34% | 24% | 16% | – | – |
